According to the supplement of paper PMC7600603:

Tests used:
Details in all cases: 72 h; CellTox Green cytotoxicity
DLD1 NRF2-GOF [1] = assay: TC50 cytotoxicity; higher = less toxic
In short: (§1)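 TC50 and drug sensitivity score, a normalised area under the curve, were derived by logistic dose-response fits of cytotoxicity. The cells were an isogenic DLD1 colorectal cancer pair, NRF2 wild-type or CRISPR-edited, kept in DMEM with 10% FBS. Compounds were tested in 384-well plates at 5 concentrations across a 10,000-fold range for 72 h. Readings with CellTox Green on a Pherastar FS reader were normalised to vehicle wells and 100-μM positive-control wells.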

DLD1 NRF2-WT [2] = assay: TC50 cytotoxicity; higher = less toxic
In short: as §1

DLD1 NRF2-GOF [3] = assay: drug sensitivity score (DSS) cytotoxicity (DSS score); higher = more toxic; extreme values may be limits of the assay
In short: as §1

DLD1 NRF2-WT [4] = assay: as above
In short: as §1

SMILES	TC50 cytotoxicity (DLD1 NRF2-GOF [1])	TC50 cytotoxicity (DLD1 NRF2-WT [2])	drug sensitivity score (DLD1 NRF2-GOF [3])	drug sensitivity score (DLD1 NRF2-WT [4])
O=C(CCCCCCNC(=O)c1cnc(N(c2ccccc2)c2ccccc2)nc1)NO [Rocilinostat]	> 10 µM	> 10 µM	0	0
Cc1ccc(NC(=O)c2ccc(CN3CC[C@H](N(C)C)C3)c(C(F)(F)F)c2)cc1Nc1nccc(-c2cncnc2)n1 [Bafetinib]	> 1 µM	> 1 µM	0	0
COc1cc2ncnc(Nc3cccc(Cl)c3F)c2cc1OC(=O)N1CCN(C)C[C@H]1C [AZD3759]	> 1 µM	> 1 µM	0	0
CN(C)CCCOc1ccc(-c2ccc3ncc4c(c3c2)n(C2CCOCC2)c(=O)n4C)cn1 [AZD0156]	> 1 µM	> 1 µM	0	0
CC(C)C[C@@H](C(=O)N[C@H](C(=O)OC1CCCC1)c1ccccc1)[C@H](O)C(=O)NO [Tosedostat]	> 10 µM	–	4.6	4.9
CCCCNc1ncc(C(=O)NCc2ccc(-n3ccnc3)cc2)c(NC2CCC(O)CC2)n1 (centres undefined) [UNC2881]	> 2.5 µM	> 2.5 µM	0	0
O=C(O)CCCCC(CCSCc1ccccc1)SCc1ccccc1 (centres undefined) [CPI-613]	> 10 µM	> 10 µM	0	0
Cc1cc(C(C)Nc2ccccc2)c2nc(N3CCOCC3)cc(=O)n2c1 (centres undefined) [TGX-221]	> 10 µM	> 10 µM	0	0
Cc1c(F)cc(C(=O)NC2CC2)cc1-c1ccc(C(=O)NCC(C)(C)C)cn1 [Losmapimod]	> 10 µM	> 10 µM	0	0
Cn1nccc1Nc1nccc(-c2ccn([C@H](CO)c3ccc(Cl)c(F)c3)c(=O)c2)n1 [GDC-0994]	> 10 µM	> 10 µM	0	0
CCS(=O)(=O)N1CC(CC#N)(n2cc(-c3ncnc4[nH]ccc34)cn2)C1 [Baricitinib]	> 2.5 µM	> 2.5 µM	0	0
NC(=O)c1cccc2cn(-c3ccc(C4CCCNC4)cc3)nc12 (centres undefined) [Niraparib]	> 10 µM	> 10 µM	0	0
CNS(=O)(=O)Nc1nccc(Cc2c(C)c3ccc(Oc4ncccn4)cc3oc2=O)c1F	> 1 µM	> 1 µM	0	0
Nc1nc(OCc2cc(Br)cs2)c2[nH]cnc2n1 [Lomeguatrib]	> 10 µM	> 10 µM	0	0
Oc1nc(-c2ccc(C(F)(F)F)cc2)nc2c1CSCC2 [XAV-939]	> 10 µM	> 10 µM	0	0
N#CC1(c2ccc(NC(=O)c3cccnc3NCc3ccncc3)cc2)CCCC1 [Apatinib]	> 10 µM	> 10 µM	0	0
CCN1C(=O)CNc2ncc(-c3ccc(-c4nc[nH]n4)nc3C)nc21 [CC-115]	> 10 µM	–	0.1	1.4
CC[C@@H](C(=O)[C@@H](C)[C@@H](O)[C@H](C)[C@@H]1O[C@@H]([C@@H](CC)C(=O)O)CC[C@@H]1C)[C@H]1O[C@]2(C=C[C@@H](O)[C@]3(CC[C@@](C)([C@H]4CC[C@](O)(CC)[C@H](C)O4)O3)O2)[C@H](C)C[C@@H]1C [Salinomycin]	> 50 µM	> 50 µM	0	0.2
CN1CCN(c2ccc(C(=O)Nc3n[nH]c4ccc(Cc5cc(F)cc(F)c5)cc34)c(NC3CCOCC3)c2)CC1 [Entrectinib]	> 1 µM	> 1 µM	0	0
CCNCCS(=O)(=O)NC[C@@]1(c2ccccc2)SC(NC(=O)C(C)(C)C)=NN1C(=O)C(C)(C)C [Litronesib]	> 1 µM	> 1 µM	1.6	0
NS(=O)(=O)OC[C@@H]1C[C@@H](n2ccc3c(N[C@H]4CCc5ccccc54)ncnc32)C[C@@H]1O [Pevonedistat]	> 10 µM	> 10 µM	0	0

SMILES	TC50 cytotoxicity (DLD1 NRF2-GOF [1])	TC50 cytotoxicity (DLD1 NRF2-WT [2])	drug sensitivity score (DLD1 NRF2-GOF [3])	drug sensitivity score (DLD1 NRF2-WT [4])
Cc1sc2c(c1C)C(c1ccc(Cl)cc1)=N[C@@H](CC(=O)Nc1ccc(O)cc1)c1nnc(C)n1-2 [Birabresib]	> 10 µM	> 10 µM	0	0
CC(C)c1cc(C(=O)N2Cc3ccc(CN4CCN(C)CC4)cc3C2)c(O)cc1O [Onalespib]	> 2.5 µM	> 2.5 µM	0	0
Cc1cc(-c2ncc(CC(=O)Nc3ccc(-c4cnccn4)cn3)cc2C)ccn1 [NVP-LGK974]	> 10 µM	> 10 µM	0	0
CC(C)(C)c1cc(NC(=O)Nc2ccc(-c3cn4c(n3)sc3cc(OCCN5CCOCC5)ccc34)cc2)no1 [Quizartinib]	> 1 µM	> 1 µM	0	0
Cn1cnc2c(F)c(Nc3ccc(Br)cc3F)c(C(=O)NOCCO)cc21 [Binimetinib]	> 1 µM	> 1 µM	0	0
Cc1c(C(=O)Nc2ccc(N3C[C@@H](C)O[C@@H](C)C3)nc2)cccc1-c1ccc(OC(F)(F)F)cc1 [Sonidegib]	> 10 µM	> 10 µM	0	0
O=C(Nc1cccc(Nc2ncc(Br)c(NCCc3cnc[nH]3)n2)c1)N1CCCC1 [BX-912]	> 10 µM	> 10 µM	2.5	2.2
CN1CCN(c2cc(C(=O)Nc3ccc4c(c3)-c3c(c(C(N)=O)nn3-c3ccc(F)cc3)CC4)c(Cl)cn2)CC1 [PHA 408]	> 10 µM	> 10 µM	0	0
O=C(/C=C\n1cnc(-c2cc(C(F)(F)F)cc(C(F)(F)F)c2)n1)NNc1ccccn1 [Verdinexor]	> 1 µM	> 1 µM	0	0
COC(=O)c1ccc2c(c1)[nH]c1ncnc(NCCCN3CCCCC3)c12 [UM729]	> 10 µM	> 10 µM	0	0
C[C@]12CC[C@H](O)CC1=CC[C@@H]1[C@@H]2CC[C@]2(C)C(c3cccnc3)=CC[C@@H]12 [Abiraterone]	> 5 µM	> 5 µM	0	0
CCOC(=O)C1=CCCC[C@H]1S(=O)(=O)Nc1ccc(F)cc1Cl [Resatorvid]	> 10 µM	> 10 µM	0	0
CN(C(=O)c1ccc(F)cc1C(F)(F)F)C1CCN(c2nnc(-c3ccnn3C)c3ccccc23)CC1 [Taladegib]	> 10 µM	> 10 µM	0	0
C[C@@H]1CN(Cc2ccc(F)cc2)[C@@H](C)CN1C(=O)c1cc2c(C(=O)C(=O)N(C)C)cn(C)c2cc1Cl [Talmapimod]	> 10 µM	> 10 µM	0	0
COc1nc(N)nc2c1ncn2[C@@H]1O[C@H](CO)[C@@H](O)[C@@H]1O [Nelarabine]	> 10 µM	> 10 µM	0	0
COc1cc(C(=O)O)ccc1NC(=O)[C@@H]1N[C@@H](CC(C)(C)C)[C@](C#N)(c2ccc(Cl)cc2F)[C@H]1c1cccc(Cl)c1F [Idasanutlin]	> 10 µM	> 10 µM	0	0
CN1CC[C@@H](NC(=O)Nc2ccc(C#N)cc2)C[C@@H]1c1nc2ccccc2[nH]1 [Glasdegib]	> 1 µM	> 1 µM	0	0
Cc1cc(Nc2nc(N[C@@H](C)c3ncc(F)cn3)ncc2Cl)[nH]n1 [AZD1480]	> 1 µM	> 1 µM	0	0
Nc1nc(NC2CC2)cc(-c2cccc(Cl)c2Cl)n1 [TH588]	> 25 µM	> 25 µM	0	0
Cc1c(-c2ccc(N3CCc4cccc(C(=O)Nc5nc6ccccc6s5)c4C3)nc2C(=O)O)cnn1CC12CC3CC(CC(C3)C1)C2	> 1 µM	–	0	–
CN(CC(=O)N(Cc1ccc(C2CCCCC2)cc1)c1ccc(C(=O)O)cc1)S(=O)(=O)c1c(F)c(F)c(F)c(F)c1F [SH-4-54]	> 25 µM	> 25 µM	0	0

SMILES	TC50 cytotoxicity (DLD1 NRF2-GOF [1])	TC50 cytotoxicity (DLD1 NRF2-WT [2])	drug sensitivity score (DLD1 NRF2-GOF [3])	drug sensitivity score (DLD1 NRF2-WT [4])
NC(=S)N/N=C/c1ncccc1N [Triapine]	> 10 µM	> 10 µM	0	0
Cc1ccc(-c2cc(C(F)(F)F)nn2-c2ccc(S(N)(=O)=O)cc2)cc1 [Celecoxib]	> 10 µM	> 10 µM	0	0
Cn1cc(CNCC2CCN(c3ncc(C(=O)NO)cn3)CC2)c2ccccc21 [Quisinostat]	> 1 µM	0.135 µM	0	5.1
CC#CC(=O)N1CC[C@@H](n2c(=O)n(-c3ccc(Oc4ccccc4)cc3)c3c(N)ncnc32)C1 [ONO-4059]	> 1 µM	> 1 µM	0	0
CCCCCOC(=O)Nc1nc(=O)n([C@@H]2O[C@H](C)[C@@H](O)[C@H]2O)cc1F [Capecitabine]	> 10 µM	> 10 µM	0	0
COc1ccc(Cn2ccc3ccc(C(=O)NO)cc32)cc1	> 10 µM	> 10 µM	0	0
Cc1cc2c(C(=O)NC[C@H](C)c3ccccc3)c(O)c(O)cc2c(O)c1-c1c(C)cc2c(C(=O)NC[C@H](C)c3ccccc3)c(O)c(O)cc2c1O [Sabutoclax]	> 25 µM	> 25 µM	0	0
CCC1(c2ccc(N)cc2)CCC(=O)NC1=O (centres undefined) [Aminoglutethimide]	> 10 µM	> 10 µM	0	0
Nc1nc(Nc2ccc3c(c2)CC[C@@H](N2CCCC2)CC3)nn1-c1cc2c(nn1)-c1ccccc1CCC2 [BGB324]	> 10 µM	> 10 µM	0	0
NC(=O)c1cccc(-c2cccc(OC(=O)NC3CCCCC3)c2)c1 [URB597]	> 1 µM	> 1 µM	0	0
O[C@H]1CC[C@H](Nc2ncc3nc(Nc4c(F)cc(F)cc4F)n([C@H]4CCOC4)c3n2)CC1 [Tanzisertib]	> 10 µM	> 10 µM	0	0
CC(C)[C@@H](CS(=O)(=O)C(C)C)N1C(=O)[C@@](C)(CC(=O)O)C[C@H](c2cccc(Cl)c2)[C@H]1c1ccc(Cl)cc1 [AMG-232]	> 10 µM	> 10 µM	0	0
CCN(CC)Cc1ccc2cc(COC(=O)Nc3ccc(C(=O)NO)cc3)ccc2c1 [Givinostat]	> 1 µM	0.344 µM	0	1.6
COc1cc2c(NC3CCN(C(C)C)CC3)nc(N3CCC(F)(F)CC3)nc2cc1OCCCN1CCCC1 [UNC0642]	> 10 µM	> 10 µM	0.1	0
C[C@@H]1CCN(C(=O)CC#N)C[C@@H]1N(C)c1ncnc2[nH]ccc12 [Tofacitinib]	> 5 µM	> 5 µM	0	0
O=C(O)CC1CC(c2ccccc2)=NO1 (centres undefined) [VGX-1027]	> 10 µM	> 10 µM	0	0
CCN(CC)CCNC(=O)c1c(C)[nH]c(/C=C2\C(=O)Nc3ccc(-c4csc(-c5ccccc5)n4)cc32)c1C [Amcasertib]	> 10 µM	> 10 µM	0	0
CS(=O)(=O)c1ccc(C(=O)Nc2ccc(Cl)c(-c3ccccn3)c2)c(Cl)c1 [Vismodegib]	> 10 µM	> 10 µM	0	0
O=C(c1cccc(Cl)c1F)N1CCN(Cc2cccc(Nc3nccs3)n2)CC1 [MK-8745]	1.55 µM	–	2.9	2
